Measured values taken from patent US10654802B2, “Indoline derivatives and method for using and producing the same” (ARIZONA BOARD OF REGENTS ON BEHALF OF THE UNIVERSITY OF …, priority 2016, dated 2020).

Molecular target: T1, Nox4 (Homo sapiens, UniProt Q9NPH5)
T1 construct: expressed in transfected cells
T1 sequence (Q9NPH5 1-578): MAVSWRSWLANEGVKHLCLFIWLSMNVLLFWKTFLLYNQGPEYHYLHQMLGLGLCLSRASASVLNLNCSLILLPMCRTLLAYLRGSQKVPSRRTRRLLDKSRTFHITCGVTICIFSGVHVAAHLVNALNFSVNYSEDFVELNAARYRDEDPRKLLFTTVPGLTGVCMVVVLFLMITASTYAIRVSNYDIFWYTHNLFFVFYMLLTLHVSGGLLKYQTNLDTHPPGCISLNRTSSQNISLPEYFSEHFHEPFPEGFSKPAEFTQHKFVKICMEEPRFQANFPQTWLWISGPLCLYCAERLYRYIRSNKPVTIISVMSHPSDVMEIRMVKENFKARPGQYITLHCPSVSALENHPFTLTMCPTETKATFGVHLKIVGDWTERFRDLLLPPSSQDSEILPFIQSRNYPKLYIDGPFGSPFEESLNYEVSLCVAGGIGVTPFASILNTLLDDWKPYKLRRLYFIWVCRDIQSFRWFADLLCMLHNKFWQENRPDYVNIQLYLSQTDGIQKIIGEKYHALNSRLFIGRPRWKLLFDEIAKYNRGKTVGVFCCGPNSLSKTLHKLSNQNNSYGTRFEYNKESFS
T1 sequence (P13498 1-195 partner): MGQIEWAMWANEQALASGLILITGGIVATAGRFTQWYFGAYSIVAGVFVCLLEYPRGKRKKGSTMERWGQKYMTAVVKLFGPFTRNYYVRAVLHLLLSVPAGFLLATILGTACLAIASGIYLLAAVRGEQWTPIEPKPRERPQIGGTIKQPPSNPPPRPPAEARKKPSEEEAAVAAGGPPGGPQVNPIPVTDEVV
Assay: Inhibition of Nox4-dependent H2O2 production in HEK/Nox4 cells, Amplex Red assay
Format: cell-based
Conditions: for remaining activity at 1 µM: 1 μM final concentration; for remaining activity at 1 µM / remaining activity at 5 µM / remaining activity at 10 µM: 1 h, HEK/Nox4 cells, DMSO vehicle = 1.000, n = 3-10, read-out: H2O2 production relative to vehicle control, Mean; for remaining activity at 5 µM: 5 μM final concentration; for remaining activity at 10 µM: 10 μM final concentration
Procedure: A high-throughput screening (HTS) assay was established for Nox4 inhibition, utilizing HEK293 cells that stably over-express Nox4 (HEK/Nox4 cells), which generate high levels of H2O2(Cheng G et al, Gene: 2001, p. 131-140). Over 30,000 compounds have been screened and medicinal chemistry efforts have led to the synthesis of numerous analogs and the identification of a chemically distinct series of selective Nox4 inhibitors. […] IC-50 was evaluated for UANox048 (FIG. 1B).
HEK cells stably transfected to overexpress Nox4 were treated with varying concentrations of test compounds, DPI (all-Nox inhibitor positive control), or DMSO (vehicle control) and incubated for 1 h (FIG. 1). (FIG. 1A) H2O2 presence was evaluated by Amplex Red assay. […] Values represent means±SEM; n=4. P values were calculated by student's two-tailed t test. *p<0.05, **p<0.01, *** p<0.001.

remaining activity at 1 µM [%] | remaining activity at 5 µM [%] | remaining activity at 10 µM [%] | H2O2 generation by HEK/Nox4 cells (varying concentrations, Amplex Red, FIG. 1A) | SMILES
95.3 | 72.2 | 73.1 |  | CCN(CC)C(=O)N1CCN(CCN2CCc3ccccc32)CC1 [UANOX066]
101 | 103 | 103 |  | CN(C)S(=O)(=O)NCCN1CCc2ccccc21 [UANOX003, N—(N,N-dimethylaminosulfonyl)-2-(indolin-1-yl)ethan-1-amine]
91.4 | 77.9 | 69.3 |  | CC(CNS(=O)(=O)c1ccc(Oc2ccc(C(F)(F)F)cn2)cc1)N1CCc2ccccc21 (stereo not shown) [UANOX070, N-(2-(indolin-1-yl)propyl)-4-((5-(trifluoromethyl)pyridin-2-yl)oxy)benzenesulfonamide]
73.7 | 87 | 86.6 |  | CC(CNC(=O)N1CCCC1)N1CCc2ccccc21 (stereo not shown) [UANOX020, N-(2-(indolin-1-yl)propyl)pyrrolidine-1-carboxamide]
111 | 111 | 99.7 |  | O=C(CCN1CCN(S(=O)(=O)N2CCCCC2)CC1)N1CCc2ccccc21 [UANOX031, 1-(indolin-1-yl)-3-(4-(piperidin-1-ylsulfonyl)piperazin-1-yl)propan-1-one]
101 | 92.1 | 88.1 |  | O=S(=O)(NCCN1CCc2ccccc21)N1CCCCC1 [UANOX013, N-(2-(indolin-1-yl)ethyl)piperidine-1-sulfonamide]
102 | 90.3 | 79.6 |  | CC(C)(CNS(=O)(=O)c1ccc(Oc2ccc(C(F)(F)F)cn2)cc1)N1CCc2ccccc21 [UANOX088]
95.9 | 88.4 | 83.4 |  | CC(CNC(=O)c1csc(-c2ccc(C(F)(F)F)cc2)n1)N1CCc2ccccc21 (stereo not shown) [UANOX056, N-(2-(indolin-1-yl)propyl)-2-(4-(trifluoromethyl)phenyl)thiazole-4-carboxamide]
96.4 | 111 | 108 |  | O=C(CN1CCN(c2ncccn2)CC1)N1CCc2ccccc21 [UANOX0192, 1-(indolin-1-yl)-2-(4-(pyrimidin-2-yl)piperazin-1-yl)ethan-1-one]
93.9 | 91.2 | 85.1 |  | Fc1ccccc1CN1CCN(CCN2CCc3ccccc32)CC1 [UANOX067, 1-(2-(4-(2-fluorobenzyl)piperazin-1-yl)ethyl)indoline]
107 | 113 | 112 |  | CCN(CC)S(=O)(=O)N1CCN(CC(=O)N2CCc3ccccc32)CC1 [UANOX025, N,N-diethyl-4-(2-(indolin-1-yl)-2-oxoethyl)piperazine-1-sulfonamide]
113 | 113 | 112 |  | O=C(CN1CCN(S(=O)(=O)N2CCCCC2)CC1)N1CCc2ccccc21 [UANOX027, 1-(indolin-1-yl)-2-(4-(piperidin-1-ylsulfonyl)piperazin-1-yl)ethan-1-one]
99.7 | 88.3 | 74.1 |  | CC(C)(CNS(=O)(=O)c1ccc(F)c(F)c1)N1CCc2ccccc21 [UANOX087, 3,4-difluoro-N-(2-(indolin-1-yl)-2-methylpropyl)benzenesulfonamide]
74.2 | 87.6 | 79.1 |  | O=C(NCCN1CCc2ccccc21)N1CCCC1 [UANOX021, N-(2-(indolin-1-yl)ethyl)pyrrolidine-1-carboxamide]
95.9 | 80.3 | 70.6 | dose-dependent decrease | COc1ccc(S(=O)(=O)NCC(C)N2CCc3ccccc32)cc1 (stereo not shown) [UANOX034, N-(2-(indolin-1-yl)propyl)-4-methoxybenzenesulfonamide]
99.4 | 101 | 88.2 |  | O=S(=O)(NCCN1CCc2ccccc21)N1CCCC1 [UANOX004, N-(2-(indolin-1-yl)ethyl)pyrrolidine-1-sulfonamide]
96 | 95 | 85.7 |  | O=S(=O)(NCCN1CCc2ccccc21)N1CCOCC1 [UANOX012, N-(2-(indolin-1-yl)ethyl)morpholine-4-sulfonamide]
98.4 | 77.9 | 67.8 |  | CC(CNS(=O)(=O)N1CCCC1)N1CCc2ccccc21 (stereo not shown) [UANOX008, N-(2-(indolin-1-yl)propyl)pyrrolidine-1-sulfonamide]
97.2 | 79.3 | 77.3 |  | CC(CNS(=O)(=O)N1CCN(C)CC1)N1CCc2ccccc21 (stereo not shown) [UANOX037]
87.1 | 78.4 | 71.4 |  | CC(CNS(=O)(=O)c1ccc(OC(F)(F)F)cc1)N1CCc2ccccc21 (stereo not shown) [UANOX049, N-(2-(indolin-1-yl)propyl)-4-(trifluoromethoxy)benzenesulfonamide]
90.2 | 71.9 | 66.5 |  | CCN(CC)S(=O)(=O)N1CCN(CCN2CCc3ccccc32)CC1 [UANOX063, N,N-diethyl-4-(2-(indolin-1-yl)ethyl)piperazine-1-sulfonamide]
82.3 | 73 | 66.5 |  | CCN(CC)S(=O)(=O)NCC(C)(C)N1CCc2ccccc21 [UANOX083, N—(N,N-diethylaminosulfonyl)-2-(indolin-1-yl)-2-methylpropane-1-amine]
99.5 | 106 | 103 |  | CCN(CC)S(=O)(=O)NCCN1CCc2ccccc21 [UANOX001, N—(N,N-diethylaminosulfonyl)-2-(indolin-1-yl)ethan-1-amine]
101 | 83.6 | 70.1 |  | COc1ccc(S(=O)(=O)NCC(C)(C)N2CCc3ccccc32)cc1 [UANOX089, N-(2-(indolin-1-yl)-2-methylpropyl)-4-methoxybenzenesulfonamide]
88.7 | 75.8 | 66.4 |  | O=S(=O)(c1ccc(OC(F)(F)F)cc1)N1CCN(CCN2CCc3ccccc32)CC1 [UANOX062, 1-(2-(4-((4-(trifluoromethoxy)phenyl)sulfonyl)piperazin-1-yl)ethyl)indoline]
92.7 | 83.5 | 73.6 |  | CC(C)(CNS(=O)(=O)c1ccc(Oc2ccccc2)cc1)N1CCc2ccccc21 [UANOX085, N-(2-(indolin-1-yl)-2-methylpropyl)-4-phenoxybenzenesulfonamide]

SMILES | remaining activity at 1 µM [%] | remaining activity at 5 µM [%] | remaining activity at 10 µM [%] | H2O2 generation by HEK/Nox4 cells (varying concentrations, Amplex Red, FIG. 1A)
CN1CCN(C(=O)NCCN2CCc3ccccc32)CC1 [UANOX011, N-(2-(indolin-1-yl)ethyl)-4-methylpiperazine-1-carboxamide] | 98 | 97.9 | 95.6 | 
